Assay results published in patent US20170314056A1, “METHOD OF USING NEAR INFRARED FLUORESCENT DYES FOR IMAGING AND TARGETING CANCERS” (priority 2010, published 2017).
“Also recorded” adds a separate entry of the source. Read-outs that look alike come from different tables or passages of the source.

Assays:
ARCaPM cells [1] = test: Live-cell kinetics of dye uptake in prostate cancer cells; format: cell-based, human; details: for uptake of dye in ARCaPM cells compared with normal P69 cells: 20 μM dye, live-cell spinning disc confocal
Procedure: ARCaPM Cells were plated on live-cell imaging chambers from World Precision Instrument (Sarasota, Fla.) overnight. Cells were treated with IR-780 with different concentrations and were imaged using a Perkin-Elmer Ultraview ERS spinning discconfocal microscope. This system was mounted on a Zeiss Axiovert 200m inverted microscope equipped with a 37° C. stage warmer, incubator, and CO2 perfusion. A x63 or x100 Zeiss oil objective (numerical aperture, 1.4) was used for all images and a Z-stack was created using the attached piezo electric z-stepper motor. The 633 nm laser line of an argon ion laser (set at 60% power) was used to excite the IR-780 organic dye. For each comparison, the exposure time and laser intensity was kept identical for accurate intensity measurement. Pixel intensity was quantitated using Metamorph 6.1 (Universal Imaging, Downingtown, Pa.) and the mean pixel intensity was generated as grey level using the Region Statistics feature on the software.
(§1) Cells were plated on live-cell imaging chambers (World Precision Instrument, Sarasota, Fla.) overnight. Cells were exposed to cyanine dyes at different concentrations and dye uptake was evaluated by a Perkin-Elmer Ultraview ERS spinning disc confocal microscope. This system was mounted on a Zeiss Axiovert 200m inverted microscope equipped with a 37° C. stage warmer, incubator, and constant CO2 perfusion. A 63× or 100× Zeiss oil objective (numerical aperture, 1.4) was used for live cell images and a Z-stack was created using the attached piezoelectric z-stepper motor. The 633 nm laser line of an argon ion laser (set at 60% power) was used to excite the cyanine dyes. […] For comparative studies, the exposure time and laser intensity were kept identical for accurate intensity measurements. Pixel intensity was quantified using Metamorph 6.1 (Universal Imaging, Downingtown, Pa.) and the mean pixel intensity was generated as grey level using the Region Statistics feature on the software (23). To determine the dye uptake by the mitochondria, the mitochondrial tracking dye Mito Tracker Orange CMTMROS (Molecular Probes, Carlsbad, Calif.) was used. To determine the dye localization in lysosomes, a lysosome tracking dye, Lyso Tracker Green DND-26 (Molecular Probes, Carlsbad, Calif.), was selected. Imaging of mitochondrial and/or lysosome localization of the cyanine dye was conducted under confocal microscopy (24).
To determine if the cyanine dye uptake and accumulation in cancer cells was dependent upon OATPs, cells were preincubated with 250 μM bromosulfophthalein (BSP), a competitive inhibitor of organic anion transporting peptides (OATPs) (25), for 5 minutes prior to incubating the cells with cyanine dyes. The uptake and accumulation of cyanine dyes in the presence and absence of BSP were conducted in the stage warmer incubator for a period of 35 minutes. The levels of cyanine dye taken up and accumulated in normal prostate (P69) and prostate cancer (ARCaPM) cells were determined and compared on a real-time basis.

ARCaPM cells [2] = test: Subcellular co-localization with mitochondria and lysosome tracking dyes; format: cell-based, human; details: Mito Tracker and Lyso Tracker co-staining
Procedure: as §1, with “Imaging of mitochondrial and/or lysosome localization of the cyanine dye was conducted under confocal microscopy (24).” left out

[3] = Dye distribution and clearance in normal mouse tissues; format: in vivo
Description: One mouse was sacrificed at 96 hrs after IR-780 injection through tail vein, and isolated tissues and organs excised from mice were cut into frozen slides and were imaged under confocal microscope.
To assess tissue distribution of these dyes, athymic mice without tumor implantation were sacrificed at 0, 6 and 80 hrs (N=3 each) after i.v. injection of IR-783 dye at a dose of 10 nmol/20 g. Dissected organs were subjected to NIR imaging by a Kodak Imaging Station 4000 MM. In another study the mice bearing orthotopic ARCaPM tumors were subjected to NIR imaging at 0.5, 24, 48, 72 and 96 hrs after IR-783 i.v. administration at a dose of 10 nmol/20 g. In some cases, we also assessed the biodistribution of NIR dye by a spectral method in tissues harvested from athymic mice bearing subcutaneous ARCaPM tumors (N=6). Tumors and normal host organs were homogenized in PBS, centrifuged at 15,000×g for 15 minutes to recover the supernatant fraction after the mice were injected i.p. with IR-783 at a dose of 10 nmol/20 g. The presence of the organic dyes (parental IR-783 and its metabolites) in tissues was estimated spectrophotometrically at an emission wavelength of 820 nm by a PTI Near Infrared Fluorometer QuantaMaster™ 50 (PTI, Birmingham, N.J.) equipped with a 75-watt xenon arc lamp under 500 to 1700 nm InGaAs detector using known concentrations of IR-783 as the standard (28). In other cases, tumor tissues harvested from mice were stored in formalin from 1 week to 3 months, and fluorescence images were obtained and compared.

[4] = for body weight: daily intraperitoneal injection, Balb/c mice
Procedure: In control mice, the same volume of PBS was injected. The body weight and lethality of these mice were closely followed for 28 days.

With “2-[2-[2-Chloro-3-[2-[1,3-dihydro-3,3-dimethyl-1-(4-sulfobutyl)-2H-indol-2-ylidene]-ethylidene]-1-cyclohexen-1-yl]-ethenyl]-3,3-dimethyl-1-(4-sulfobutyl)-3H-indolium [IR-783]” the “uptake of dye in ARCaPM cells compared with normal P69 cells” value (ARCaPM cells [1]) was “significant uptake”, the “early phase of uptake and retention completed” value (ARCaPM cells [1]; ARCaP cells) was 12 min and the “late phase of uptake and retention completed” value (ARCaPM cells [1]; ARCaP cells) was 30 min. The “subcellular localization of the dye” value (ARCaPM cells [2]) was “condense on mitochondrial and lysosomal organelles; also recorded: a large portion of the IR-783 was co-localized with these subcellular organelles”, the organs accumulating dye ([3]; 6 hrs after i.v. 10 nmol/20 g, normal mice) was “accumulate in mouse liver, kidney, lung and heart” and the “dye in vital organs at 80 hrs” value ([3]; 80 hrs after i.v. 10 nmol/20 g, normal mice) was “completely cleared”. For the same molecule, the “time by which dye was cleared from all mouse vital organs” value ([3]; i.v. 10 nmol/20 g, normal mice) was ≤ 80 h, the “time period within which dye was cleared from normal organs” value ([3]; liver, kidney, testis and seminal vesicles, live animals) was ≤ 96 h and the body weight ([4]; 0 day, 1X imaging dose) was 20.29 g. The body weight ([4]; 0 day, 10X imaging dose) was 20.57 g, the body weight ([4]; 0 day, 100X imaging dose) was 19.85 g and the “lethality in treated mice” value ([4]; 100× imaging dose, 28 days) was “no lethality”. For the same molecule, the body weight ([4]; 1 day, 1X imaging dose) was 20.20 g, the body weight ([4]; 1 day, 10X imaging dose) was 20.61 g and the body weight ([4]; 1 day, 100X imaging dose) was 19.74 g. It also gave a body weight ([4]; 2 day, 1X imaging dose) of 20.23 g, a body weight ([4]; 2 day, 10X imaging dose) of 20.59 g and a body weight ([4]; 2 day, 100X imaging dose) of 20.01 g. For the same molecule, the body weight ([4]; 3 day, 1X imaging dose) was 20.32 g, the body weight ([4]; 3 day, 10X imaging dose) was 20.98 g and the body weight ([4]; 3 day, 100X imaging dose) was 20.39 g. The body weight ([4]; 4 day, 1X imaging dose) was 20.34 g, the body weight ([4]; 4 day, 10X imaging dose) was 21.02 g and the body weight ([4]; 4 day, 100X imaging dose) was 20.43 g. It also gave a body weight ([4]; 5 day, 1X imaging dose) of 21.00 g, a body weight ([4]; 5 day, 10X imaging dose) of 21.34 g and a body weight ([4]; 5 day, 100X imaging dose) of 21.01 g. It also gave a body weight ([4]; 6 day, 1X imaging dose) of 21.87 g, a body weight ([4]; 6 day, 10X imaging dose) of 21.76 g and a body weight ([4]; 6 day, 100X imaging dose) of 21.23 g. It also gave a body weight ([4]; 7 day, 1X imaging dose) of 22.32 g, a body weight ([4]; 7 day, 10X imaging dose) of 22.54 g and a body weight ([4]; 7 day, 100X imaging dose) of 22.00 g. It also gave a body weight ([4]; 14 day, 1X imaging dose) of 23.91 g, a body weight ([4]; 14 day, 10X imaging dose) of 24.01 g and a body weight ([4]; 14 day, 100X imaging dose) of 23.76 g. For the same molecule, the body weight ([4]; 28 day, 1X imaging dose) was 24.86 g, the body weight ([4]; 28 day, 10X imaging dose) was 24.87 g and the body weight ([4]; 28 day, 100X imaging dose) was 24.61 g.
With `CCCN1C(=CC=C2CCCC(C=CC3=[N+](CCC)c4ccccc4C3(C)C)=C2Cl)C(C)(C)c2ccccc21.[I-]` [IR-780, 2-[2-[2-Chloro-3-[(1,3-dihydro-3,3-dimethyl-1-propyl-2H-indol-2-ylidene)ethylidene]-1-cyclohexen-1-yl]ethenyl]-3,3-dimethyl-1-propylindolium iodide] the “uptake of dye in ARCaPM cells compared with normal P69 cells” value (ARCaPM cells [1]) was “big difference in IR-780 uptake by cancer cells and normal cells”, the “dye concentration needed to measure uptake into cancer cells in culture” value (ARCaPM cells [1]; time course and concentration dependence) was 20 to 50 µM and the “subcellular localization of the dye” value (ARCaPM cells [2]) was “co-localized with both mitochondria and lysosomes; also recorded: Co-localization of IR-780 and mitochondrial and lysosome were shown”. The “dye uptake in normal mouse tissues” value ([3]; 96 hrs after injection through tail vein, frozen slides, confocal) was “all mouse tissues failed to uptake this organic dye”, the body weight ([4]; 0 day, 1X imaging dose) was 19.00 g and the body weight ([4]; 0 day, 10X imaging dose) was 20.71 g. For the same molecule, the body weight ([4]; 0 day, 100X imaging dose) was 20.14 g, the “day after injection at which all mice were killed” value ([4]; 100× excess of the imaging dose) was 2 days and the body weight ([4]; 1 day, 1X imaging dose) was 19.02 g. The body weight ([4]; 1 day, 10X imaging dose) was 20.69 g, the body weight ([4]; 1 day, 100X imaging dose) was 0 g and the body weight ([4]; 2 day, 1X imaging dose) was 19.71 g. It also gave a body weight ([4]; 2 day, 10X imaging dose) of 20.70 g, a body weight ([4]; 2 day, 100X imaging dose) of 0 g and a body weight ([4]; 3 day, 1X imaging dose) of 20.01 g. The body weight ([4]; 3 day, 10X imaging dose) was 21.03 g, the body weight ([4]; 3 day, 100X imaging dose) was 0 g and the body weight ([4]; 4 day, 1X imaging dose) was 20.32 g. It also gave a body weight ([4]; 4 day, 10X imaging dose) of 21.24 g, a body weight ([4]; 4 day, 100X imaging dose) of 0 g and a body weight ([4]; 5 day, 1X imaging dose) of 20.56 g. For the same molecule, the body weight ([4]; 5 day, 10X imaging dose) was 21.89 g, the body weight ([4]; 5 day, 100X imaging dose) was 0 g and the body weight ([4]; 6 day, 1X imaging dose) was 20.97 g. It also gave a body weight ([4]; 6 day, 10X imaging dose) of 22.00 g, a body weight ([4]; 6 day, 100X imaging dose) of 0 g and a body weight ([4]; 7 day, 1X imaging dose) of 21.81 g. For the same molecule, the body weight ([4]; 7 day, 10X imaging dose) was 22.56 g, the body weight ([4]; 7 day, 100X imaging dose) was 0 g and the body weight ([4]; 14 day, 1X imaging dose) was 23.56 g. The body weight ([4]; 14 day, 10X imaging dose) was 24.00 g, the body weight ([4]; 14 day, 100X imaging dose) was 0 g and the body weight ([4]; 28 day, 1X imaging dose) was 24.44 g. The body weight ([4]; 28 day, 10X imaging dose) was 24.56 g and the body weight ([4]; 28 day, 100X imaging dose) was 0 g.
